Biological target: T1, human PARD-1 (Poly (ADP-Ribose) Polymerase-1) (Homo sapiens, UniProt P09874)
T1 construct: purchased Trevigen Inc., Gaithersburg, Md
Assay: Poly (ADP-Ribose) Polymerase-1 in vitro enzyme assay (Universal Colorimetric Assay Kit, Trevigen)
Format: biochemical
Details: letter codes; read-out: extent of inhibition of PARP activity (IC50, micromolar)
Procedure: Poly (ADP-Ribose) Polymerase-1 (PARD-1) In Vitro Enzyme Assay: Compounds were screened for inhibitory activity against human PARD-1 in vitro using the Universal Colorimetric PARD Assay Kit (Trevigen Inc., Gaithersburg, Md.) as directed by the supplier. Compounds are assayed in duplicate in 0.5% DMSO final concentration, negative control is no enzyme, while positive control is DMSO vehicle alone. IC50 determinations are made using Microsoft Excel. For all cell assays, compounds are added to cells in 5% DMSO/PBS for a final concentration of 0.5% DMSO.

T1 sequence (P09874 whole entry): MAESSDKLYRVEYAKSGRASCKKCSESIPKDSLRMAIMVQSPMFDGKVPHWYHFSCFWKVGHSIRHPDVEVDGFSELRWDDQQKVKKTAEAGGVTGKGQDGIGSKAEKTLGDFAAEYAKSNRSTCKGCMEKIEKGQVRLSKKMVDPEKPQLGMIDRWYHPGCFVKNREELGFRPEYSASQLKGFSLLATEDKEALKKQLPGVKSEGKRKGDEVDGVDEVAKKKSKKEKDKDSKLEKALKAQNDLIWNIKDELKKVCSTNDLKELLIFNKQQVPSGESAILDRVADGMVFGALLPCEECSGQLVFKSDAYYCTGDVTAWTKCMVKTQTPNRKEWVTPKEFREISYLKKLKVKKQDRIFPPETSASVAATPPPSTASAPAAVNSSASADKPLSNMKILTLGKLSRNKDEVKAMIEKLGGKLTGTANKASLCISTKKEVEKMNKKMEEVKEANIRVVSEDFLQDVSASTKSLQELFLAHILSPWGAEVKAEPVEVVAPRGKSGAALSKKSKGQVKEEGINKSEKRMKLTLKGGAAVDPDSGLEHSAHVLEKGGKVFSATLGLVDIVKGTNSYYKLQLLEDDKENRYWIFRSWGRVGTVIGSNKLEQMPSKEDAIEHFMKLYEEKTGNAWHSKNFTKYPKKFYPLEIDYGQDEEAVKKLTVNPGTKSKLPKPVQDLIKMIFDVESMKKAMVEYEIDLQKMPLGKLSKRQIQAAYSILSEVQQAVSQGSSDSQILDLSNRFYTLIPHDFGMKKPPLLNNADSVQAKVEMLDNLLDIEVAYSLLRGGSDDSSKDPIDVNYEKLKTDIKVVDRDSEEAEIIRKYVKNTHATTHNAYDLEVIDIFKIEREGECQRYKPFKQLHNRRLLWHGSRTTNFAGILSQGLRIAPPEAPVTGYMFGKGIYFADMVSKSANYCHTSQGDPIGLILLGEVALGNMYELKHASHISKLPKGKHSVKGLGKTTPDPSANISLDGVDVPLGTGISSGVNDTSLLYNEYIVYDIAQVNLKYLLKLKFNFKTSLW

Row | Structure (SMILES) | IC50
1 | Nc1cc(-c2n[nH]c(=O)c3ccccc23)ccc1N1CCN(CC2CCCO2)CC1 (stereo not shown) [4-(3-amino-4-(4-((tetrahydrofuran-2-yl)methyl)piperazin-1-yl)phenyl)phthalazin-1(2H)-one] | 0.1 to 1 µM
2 | Nc1cc(-c2n[nH]c(=O)c3ccccc23)ccc1N1CCN(CC2CCCCC2)CC1 [4-(3-amino-4-(4-(cyclohexylmethyl)piperazin-1-yl)phenyl)phthalazin-1(2H)-one] | 0.001 to 0.1 µM
3 | Nc1cc(-c2n[nH]c(=O)c3ccccc23)ccc1N1CCN(CC2CC2)CC1 [4-(3-amino-4-(4-(cyclopropylmethyl)piperazin-1-yl)phenyl)phthalazin-1(2H)-one] | 0.001 to 0.1 µM
4 | Nc1cc(-c2n[nH]c(=O)c3ccccc23)ccc1N1CCN(Cc2cccnc2)CC1 [4-(3-amino-4-(4-(pyridin-3-ylmethyl)piperazin-1-yl)phenyl)phthalazin-1(2H)-one] | 0.001 to 0.1 µM
5 | Nc1cc(-c2n[nH]c(=O)c3ccccc23)ccc1N1CCN(c2ccncc2)CC1 [4-(3-amino-4-(4-(pyridin-4-yl)piperazin-1-yl)phenyl)phthalazin-1(2H)-one] | 0.001 to 0.1 µM
6 | Nc1cc(-c2n[nH]c(=O)c3ccccc23)ccc1N1CCN(Cc2ccncc2)CC1 [4-(3-amino-4-(4-(pyridin-4-ylmethyl)piperazin-1-yl)phenyl)phthalazin-1(2H)-one] | 0.001 to 0.1 µM
7 | Nc1cc(-c2n[nH]c(=O)c3ccccc23)ccc1N1CCN(Cc2ccccc2)CC1 [4-(3-amino-4-(4-benzylpiperazin-1-yl)phenyl)phthalazin-1(2H)-one] | 0.1 to 1 µM
8 | Nc1cc(-c2n[nH]c(=O)c3ccccc23)ccc1N1CCN(C2CCCC2)CC1 [4-(3-amino-4-(4-cyclopentylpiperazin-1-yl)phenyl)phthalazin-1(2H)-one] | 0.001 to 0.1 µM
9 | Nc1cc(-c2n[nH]c(=O)c3ccccc23)ccc1N1CCN(C2CC2)CC1 [4-(3-amino-4-(4-cyclopropylpiperazin-1-yl)phenyl)phthalazin-1(2H)-one] | 0.001 to 0.1 µM
10 | CCN1CCN(c2ccc(-c3n[nH]c(=O)c4ccccc34)cc2N)CC1 [4-(3-amino-4-(4-ethylpiperazin-1-yl)phenyl)phthalazin-1(2H)-one] | 0.001 to 0.1 µM
11 | Nc1cc(-c2n[nH]c(=O)c3ccccc23)ccc1N1CCN(C(=O)c2ccncc2)CC1 [4-(3-amino-4-(4-isonicotinoylpiperazin-1-yl)phenyl)phthalazin-1(2H)-one] | 0.1 to 1 µM
12 | CC(C)N1CCN(c2ccc(-c3n[nH]c(=O)c4ccccc34)cc2N)CC1 [4-(3-amino-4-(4-isopropylpiperazin-1-yl)phenyl)phthalazin-1(2H)-one] | 0.001 to 0.1 µM
13 | CN1CCN(c2ccc(-c3n[nH]c(=O)c4ccccc34)cc2N)CC1 [4-(3-amino-4-(4-methylpiperazin-1-yl)phenyl)phthalazin-1(2H)-one] | 0.001 to 0.1 µM
14 | CC(C)(C)N1CCN(c2ccc(-c3n[nH]c(=O)c4ccccc34)cc2N)CC1 [4-(3-amino-4-(4-tert-butylpiperazin-1-yl)phenyl)phthalazin-1(2H)-one] | 0.001 to 0.1 µM

The remaining lines, values ahead:

Row | IC50 | Structure (SMILES)
15 | 0.001 to 0.1 µM | Nc1cc(-c2n[nH]c(=O)c3ccccc23)ccc1N1CCNCC1 [4-(3-amino-4-(piperazin-1-yl)phenyl)phthalazin-1(2H)-one]
16 | 1 to 5 µM | CC(=O)Nc1cc(-c2n[nH]c(=O)c3ccccc23)ccc1N1CCN(C(C)=O)CC1 [N-(2-(4-acetylpiperazin-1-yl)-5-(4-oxo-3,4-dihydrophthalazin-1-yl)phenyl)acetamide]
17 | 1 to 5 µM | CCN1CCN(c2ccc(-c3n[nH]c(=O)c4ccccc34)cc2NC(C)=O)CC1 [N-(2-(4-ethylpiperazin-1-yl)-5-(4-oxo-3,4-dihydrophthalazin-1-yl)phenyl)acetamide]
18 | > 5 µM | CCN1CCN(c2ccc(-c3n[nH]c(=O)c4ccccc34)cc2NC(=O)C(C)(C)C)CC1 [N-(2-(4-ethylpiperazin-1-yl)-5-(4-oxo-3,4-dihydrophthalazin-1-yl)phenyl)pivalamide]
19 | 1 to 5 µM | CC(=O)Nc1cc(-c2n[nH]c(=O)c3ccccc23)ccc1N1CCN(C(C)C)CC1 [N-(2-(4-isopropylpiperazin-1-yl)-5-(4-oxo-3,4-dihydrophthalazin-1-yl)phenyl)acetamide]
20 | 1 to 5 µM | CN1CCN(c2ccc(-c3n[nH]c(=O)c4ccccc34)cc2NC(=O)Cc2cccs2)CC1 [N-(2-(4-methylpiperazin-1-yl)-5-(4-oxo-3,4-dihydrophthalazin-1-yl)phenyl)-2-(thiophen-2-yl)acetamide]
21 | 0.1 to 1 µM | CC(=O)Nc1cc(-c2n[nH]c(=O)c3ccccc23)ccc1N1CCN(C)CC1 [N-(2-(4-methylpiperazin-1-yl)-5-(4-oxo-3,4-dihydrophthalazin-1-yl)phenyl)acetamide]
22 | 0.1 to 1 µM | CN1CCN(c2ccc(-c3n[nH]c(=O)c4ccccc34)cc2NC(=O)c2ccc3c(c2)OCO3)CC1 [N-(2-(4-methylpiperazin-1-yl)-5-(4-oxo-3,4-dihydrophthalazin-1-yl)phenyl)benzo[d][1,3]dioxole-5-carboxamide]
23 | 0.1 to 1 µM | CN1CCN(c2ccc(-c3n[nH]c(=O)c4ccccc34)cc2NC(=O)C2CCCCC2)CC1 [N-(2-(4-methylpiperazin-1-yl)-5-(4-oxo-3,4-dihydrophthalazin-1-yl)phenyl)cyclohexanecarboxamide]
24 | 0.1 to 1 µM | CN1CCN(c2ccc(-c3n[nH]c(=O)c4ccccc34)cc2NC(=O)c2ccco2)CC1 [N-(2-(4-methylpiperazin-1-yl)-5-(4-oxo-3,4-dihydrophthalazin-1-yl)phenyl)furan-2-carboxamide]
25 | 1 to 5 µM | CC(C)C(=O)Nc1cc(-c2n[nH]c(=O)c3ccccc23)ccc1N1CCN(C)CC1 [N-(2-(4-methylpiperazin-1-yl)-5-(4-oxo-3,4-dihydrophthalazin-1-yl)phenyl)isobutyramide]
26 | > 5 µM | CN1CCN(c2ccc(-c3n[nH]c(=O)c4ccccc34)cc2NC(=O)C(C)(C)C)CC1 [N-(2-(4-methylpiperazin-1-yl)-5-(4-oxo-3,4-dihydrophthalazin-1-yl)phenyl)pivalamide]
27 | 0.1 to 1 µM | CN1CCN(c2ccc(-c3n[nH]c(=O)c4ccccc34)cc2NC(=O)NC(=O)c2ccccc2)CC1 [N-(2-(4-methylpiperazin-1-yl)-5-(4-oxo-3,4-dihydrophthalazin-1-yl)phenylcarbamoyl)benzamide]
28 | 1 to 5 µM | CC(=O)Nc1cc(-c2n[nH]c(=O)c3ccccc23)ccc1N1CCN(C(C)(C)C)CC1 [N-(2-(4-tert-butylpiperazin-1-yl)-5-(4-oxo-3,4-dihydrophthalazin-1-yl)phenyl)acetamide]
29 | > 5 µM | CC(C)(C)C(=O)Nc1cc(-c2n[nH]c(=O)c3ccccc23)ccc1N1CCN(C(C)(C)C)CC1 [N-(2-(4-tert-butylpiperazin-1-yl)-5-(4-oxo-3,4-dihydrophthalazin-1-yl)phenyl)pivalamide]
30 | 0.1 to 1 µM | COC(=O)C(=O)Nc1cc(-c2n[nH]c(=O)c3ccccc23)ccc1N1CCN(C)CC1 [methyl 2-(2-(4-methylpiperazin-1-yl)-5-(4-oxo-3,4-dihydrophthalazin-1-yl)phenylamino)-2-oxoacetate]
31 | 0.1 to 1 µM | CC(C)(C)OC(=O)CN1CCN(c2ccc(-c3n[nH]c(=O)c4ccccc34)cc2N)CC1 [tert-butyl 2-(4-(2-amino-4-(4-oxo-3,4-dihydrophthalazin-1-yl)phenyl)piperazin-1-yl)acetate]
